Drawing on patent US6306860A, “2,5-pyridinedicarboxylic acid derivatives” (Dong Wha Pharm. Inc. Co., Ltd., priority 1998, dated 2001), this text covers inhibition for 17 compounds.

Each structure is given as a SMILES string. Where a name gives a salt, the structure may show the parent alone.

The target in experiment [1] is T1, HBV polymerase (Hepatitis B virus genotype D subtype ayw, UniProt P03156).
T1 construct: made in house; host or cells: E. coli
Nature of the experiment: Inhibitory activities against HBV polymerase (reverse transcriptase activity) in vitro. The class given is biochemical. The settings on record: read-out: Inhibitory activity of HBV-RT (%); for inhibition at 0.01 µg/mL: 0.01 μg/ml; for inhibition at 0.1 µg/mL: 0.1 μg/ml; for inhibition at 1 µg/mL: 1 μg/ml. The source says:
Experiment 1:Inhibitory Activities Against HBV Polymerase in vitro
Recently, the inventors of the present invention have produced a recombinant HBV polymerase that is expressed from E.coli transformant, measured its enzyme activity and filed patent applications threrof [Korean Pat. Appl. Nos. 94-3918 and 96-33998].
The inventors have also established a method of measuring the reverse transcriptase activity of HBV polymerase in vitro. The fundamental principle is the same as the ELISA method, and after reacting the substrate with biotin- and DIG-modified nucleotide, a method of recognizing the polymerized substrate as anti-DIG antibody with peroxidase was used.
20 μl of HBV polymerase, 20 μl of reaction mixture and 20 μl of test compound was mixed and reacted at 14° C.~30° C. for 18~24 hours. Then, the inhibitory effect of the test compound against reverse transcriptase activity in the HBV polymerase was examined, compared with the results of control tests without the test compound.

For experiment [2], the target named is T2, HIV reverse transcriptase (Human immunodeficiency virus type 1 group M subtype B, UniProt P04585).
T2 construct: purchased Boehringer Mannheim
Kind of experiment: In vitro inhibition test against HIV reverse transcriptase. Format: biochemical. The settings on record: read-out: Inhibitory activity of HIV-RT (%); for inhibition at 0.1 µg/mL: 0.1 μg/ml; for inhibition at 1 µg/mL: 1 μg/ml. As to the method:
Experiment 2: The in vitro Inhibition Test Against HIV Reverse Transcriptase
The inhibitory activity in vitro was measured using a non-radioactive reverse transcriptase assay Kit (Boehringer Mannheim).
At first, 20 μl(40 ng) of HIV-RT was added to the wells, coated with streptavidin and with the addition of 20 μl reaction mixture containing template/primer hybrid poly(A)/oligo(dT)15 and DIG-(digoxigenin)-dUTP, biotin-dUTP and TTP, 20 μl of test compound was added and reacted at 37° C. for 1 hour. The control without test compound was used for the comparison of related activity. Since DNA containing nucleotide labeled with digoxigenin and biotine was prepared by the action of HIV-RT, it was combined with streptavidin coated at the bottom of the wells. After the reaction was completed, remaining impurities were removed by washing each well with 250 μl buffer solution (pH 7.0) for 30 seconds 5 times and with the addition of 200 μl anti-DIG-POD antibody, the mixture was reacted at 37° C. for 1 hour. For the removal of remaining impurities again, the reacting solution was washed with a buffer solution and with the addition of 200 μl ABTS™ each, a substrate of POD(peroxidase), the solution was reacted at room temperature for 30 minutes. The absorbance was read by ELISA reader at 405 nm for the assay of reverse transcriptase activity and its inhibition activity.

T1 sequence (P03156 whole entry): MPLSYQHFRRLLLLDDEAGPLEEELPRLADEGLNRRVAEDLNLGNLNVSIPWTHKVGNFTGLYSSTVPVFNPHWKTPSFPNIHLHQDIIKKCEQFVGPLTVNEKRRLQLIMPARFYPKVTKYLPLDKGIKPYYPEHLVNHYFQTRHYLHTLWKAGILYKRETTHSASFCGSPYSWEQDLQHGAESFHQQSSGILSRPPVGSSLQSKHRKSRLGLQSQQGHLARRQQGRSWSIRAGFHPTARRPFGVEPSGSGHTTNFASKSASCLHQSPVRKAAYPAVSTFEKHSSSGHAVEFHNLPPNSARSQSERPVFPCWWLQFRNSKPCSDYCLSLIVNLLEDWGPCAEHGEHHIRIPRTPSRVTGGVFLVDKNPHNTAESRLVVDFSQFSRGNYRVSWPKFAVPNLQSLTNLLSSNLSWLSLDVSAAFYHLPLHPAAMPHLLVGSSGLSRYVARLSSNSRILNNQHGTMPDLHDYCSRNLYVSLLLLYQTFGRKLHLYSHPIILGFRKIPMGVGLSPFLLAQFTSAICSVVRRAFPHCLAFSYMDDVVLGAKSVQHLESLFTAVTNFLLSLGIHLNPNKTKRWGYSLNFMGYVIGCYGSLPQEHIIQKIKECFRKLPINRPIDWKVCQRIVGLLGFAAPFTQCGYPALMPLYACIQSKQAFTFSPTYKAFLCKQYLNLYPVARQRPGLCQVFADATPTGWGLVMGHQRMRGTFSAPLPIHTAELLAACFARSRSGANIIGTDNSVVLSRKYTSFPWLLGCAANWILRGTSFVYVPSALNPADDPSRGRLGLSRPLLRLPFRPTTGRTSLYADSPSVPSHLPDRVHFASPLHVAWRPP

Consider `COC(CNC(=O)c1ccc(C(=O)N2CCN(c3ncccc3NC(C)C)CC2)nc1)OC` [Exam. 51, 5-[N-(2,2-dimethoxyethyl)carbamoyl]-2-[1-[3-(isopropylamino)-2-pyridyl]piperazin-4-yl-carbonyl]pyridine], for which, in experiment [1], the inhibition at 0.01 µg/mL is 57%, the inhibition at 0.1 µg/mL is 65% and the inhibition at 1 µg/mL is 87%. Moreover, in experiment [2], the inhibition at 0.1 µg/mL was 30% and the inhibition at 1 µg/mL amounted to 51%.
As for `CC(C)Nc1cccnc1N1CCN(C(=O)c2ccc(C(=O)N(C)CC3OCCO3)cn2)CC1` [Exam. 52, 5-[N-[(1,3-Dioxolan-2-yl)methyl]-N-methylcarbamoyl]-2-[1-[3-(isopropylamino)-2-pyridyl]piperazin-4-yl-carbonyl]pyridine], in experiment [1], the inhibition at 0.01 µg/mL came to 39%, the inhibition at 0.1 µg/mL came out at 60% and the inhibition at 1 µg/mL was determined as 76%. Also, in experiment [2], the inhibition at 0.1 µg/mL worked out at 50% and the inhibition at 1 µg/mL was determined as 62%.
For `CC(C)Nc1cccnc1N1CCN(C(=O)c2ccc(C(=O)NCC3CCCO3)cn2)CC1` (stereo not shown) [Exam. 53, 2-[1-[3-(isopropylamino)-2-pyridyl]piperazin-4-yl-carbonyl]-5-[N-(tetrahydrofuran-2-yl-methyl)carbamoyl]pyridine], in experiment [1], the inhibition at 0.01 µg/mL was 52%, the inhibition at 0.1 µg/mL turned out to be 60% and the inhibition at 1 µg/mL is 74%. In addition, in experiment [2], the inhibition at 0.1 µg/mL is 59% and the inhibition at 1 µg/mL worked out at 78%.
With `CC(C)Nc1cccnc1N1CCN(C(=O)c2ccc(C(=O)NC3CCOC3=O)cn2)CC1` (stereo not shown) [Exam. 55, 2-[1-[3-(Isopropylamino)-2-pyridyl]piperazin-4-yl-carbonyl]-5-[N-(tetrahydro-2-fuanon-3-yl)carbamoyl]pyridine], in experiment [1], the inhibition at 0.01 µg/mL was 55%, the inhibition at 0.1 µg/mL was 69% and the inhibition at 1 µg/mL was determined as 79%. In experiment [2], the inhibition at 0.1 µg/mL is 31% and the inhibition at 1 µg/mL is 62%.
As for `Nc1cccnc1N1CCN(C(=O)c2ccc(C(=O)NC3CCOC3=O)cn2)CC1` (stereo not shown) [Exam. 56, 2-[1-(3-amino-2-pyridyl)piperazin-4-yl-carbonyl]-5-[N-(tetrahydro-2-furanon-3-yl)carbamoyl]pyridine], in experiment [1], the inhibition at 0.01 µg/mL was determined as 65%, the inhibition at 0.1 µg/mL worked out at 70% and the inhibition at 1 µg/mL worked out at 82%. In experiment [2], the inhibition at 0.1 µg/mL turned out to be 45% and the inhibition at 1 µg/mL was 74%.
For the compound `CC(C)Nc1cccnc1N1CCN(C(=O)c2ccc(C(=O)NC3CCSC3=O)cn2)CC1` (stereo not shown) [Exam. 57, 2-[1-[3-(isopropylamino)-2-pyridyl]piperazin-4-yl-carbonyl]-5-[N-(tetrahydro-2-thiophenon-3-yl)carbamoyl]pyridine], in experiment [1], the inhibition at 0.01 µg/mL worked out at 23%, the inhibition at 0.1 µg/mL worked out at 53% and the inhibition at 1 µg/mL was 72%. Further, in experiment [2], the inhibition at 0.1 µg/mL worked out at 61% and the inhibition at 1 µg/mL worked out at 70%.
In the same order, the values of `CC(C)Nc1cccnc1N1CCN(C(=O)c2ccc(C(=O)NCCCN3CCCC3=O)cn2)CC1` [Exam. 58, 2-[1-[3-(isopropylamino)-2-pyridyl]piperazin-4-yl-carbonyl]-5-[N-[3-(2-pyrrolidinon-1-yl)propyl]carbamoyl]pyridine.HCl] are 63%, 72%, 84%, 45% and 63%.
On the same counts, the results for `CC(C)Nc1cccnc1N1CCN(C(=O)c2ccc(C(=O)NCCN3CCOCC3)cn2)CC1` [Exam. 59, 2-[1-[3-(isopropylamino)-2-pyridyl]piperazin-4-yl-carbonyl]-5-[N-[2-(morpholin-4-yl)ethyl]carbamoyl]pyridine] are 49%, 60%, 70%, 15% and 61%.
In the same order, the values of `CCNc1cccnc1N1CCN(C(=O)c2ccc(C(=O)NCCN3CCOCC3)cn2)CC1` [Exam. 60, 2-[1-[3-(ethylamino)-2-pyridyl]piperazin-4-yl-carbonyl]-5-[N-[2-(morpholin4-yl)ethyl]carbamoyl]pyridine.HCl] are 30%, 52%, 66%, 55% and 73%.
In the case of `CC(C)Nc1cccnc1N1CCN(C(=O)c2ccc(C(=O)NCCN(C)C)cn2)CC1` [Exam. 62, 5-[N-[2-(dimethylamino)ethyl]carbamoyl]-2-[1-[3-(isopropylamino)-2-pyridyl]piperazin-4-yl-carbonyl]pyridine.HCl], in experiment [1], the inhibition at 0.01 µg/mL is 47%, the inhibition at 0.1 µg/mL stood at 58% and the inhibition at 1 µg/mL is 69%. In addition, in experiment [2], the inhibition at 0.1 µg/mL turned out to be 63% and the inhibition at 1 µg/mL is 79%.
`Cc1cc(NC(=O)c2ccc(C(=O)N3CCN(c4ncccc4NC(C)C)CC3)nc2)n[nH]1` [Exam. 66, 6-[1-[3-(isopropylamino)-2-pyridyl]piperazin-4-yl-carbonyl]-N-(5-methyl-1H-pyrazol-3-yl)nicotinamide]: in experiment [1], the inhibition at 0.01 µg/mL is 20%, the inhibition at 0.1 µg/mL is 53% and the inhibition at 1 µg/mL worked out at 70%. Further, in experiment [2], the inhibition at 0.1 µg/mL came out at 52% and the inhibition at 1 µg/mL was found to be 76%.
With `Cc1cc(NC(=O)c2ccc(C(=O)N3CCN(c4ncccc4NC(C)C)CC3)nc2)no1` [Exam. 67, 6-[1-[3-(isopropylamino)-2-pyridyl]piperazin-4-yl-carbonyl]-N-(5-methylisoxazol-3-yl)nicotinamide], in experiment [1], the inhibition at 0.01 µg/mL was 25%, the inhibition at 0.1 µg/mL stood at 50% and the inhibition at 1 µg/mL amounted to 72%. Further, in experiment [2], the inhibition at 0.1 µg/mL was found to be 30% and the inhibition at 1 µg/mL amounted to 58%.
With `Cc1csc(NC(=O)c2ccc(C(=O)N3CCN(c4ncccc4NC(C)C)CC3)nc2)n1` [Exam. 68, 6-[1-[3-(isopropylamino)-2-pyridyl)piperazin-4-yl-carbonyl]-N-(4-methyl-1,3-thiazol-2-yl)nicotinamide], in experiment [1], the inhibition at 0.01 µg/mL stood at 30%, the inhibition at 0.1 µg/mL is 69% and the inhibition at 1 µg/mL amounted to 81%. Also, in experiment [2], the inhibition at 0.1 µg/mL amounted to 53% and the inhibition at 1 µg/mL is 70%.
For the compound `CC(C)Nc1cccnc1N1CCN(C(=O)c2ccc(C(=O)Nc3nncs3)cn2)CC1` [Exam. 69, 6-[1-[3-(isopropylamino)-2-pyridyl]piperazin-4-yl-carbonyl]-N-(1,3,4-thiadiazol-2-yl)nicotinamide], in experiment [1], the inhibition at 0.01 µg/mL was determined as 12%, the inhibition at 0.1 µg/mL is 47% and the inhibition at 1 µg/mL was 64%. In experiment [2], the inhibition at 0.1 µg/mL turned out to be 35% and the inhibition at 1 µg/mL was determined as 67%.
Regarding `CC(C)Nc1cccnc1N1CCN(C(=O)c2ccc(C(=O)Nc3ccccn3)cn2)CC1` [Exam. 70, 6-[1-[3-(isopropylamino)-2-pyridyl]piperazin-4-yl-carbonyl]-N-(2-pyridyl)nicotinamide], in experiment [1], the inhibition at 0.01 µg/mL turned out to be 26%, the inhibition at 0.1 µg/mL was 55% and the inhibition at 1 µg/mL was determined as 74%. Also, in experiment [2], the inhibition at 0.1 µg/mL worked out at 55% and the inhibition at 1 µg/mL was found to be 74%.
For the compound `COc1ccc(NC(=O)c2ccc(C(=O)N3CCN(c4ncccc4NC(C)C)CC3)nc2)cn1` [Exam. 71, 6-[1-[3-(isopropylamino)-2-pyridyl]piperazin-4-yl-carbonyl]-N-(6-methoxy-3-pyridyl)nicotinamide], in experiment [1], the inhibition at 0.01 µg/mL was 59%, the inhibition at 0.1 µg/mL came to 70% and the inhibition at 1 µg/mL was 83%. Also, in experiment [2], the inhibition at 0.1 µg/mL was found to be 48% and the inhibition at 1 µg/mL is 74%.
On the same counts, the results for `CC(C)Nc1cccnc1N1CCN(C(=O)c2ccc(C(=O)Nc3cnccn3)cn2)CC1` [Exam. 72, 6-[1-[3-(isopropylamino)-2-pyridyl]piperazin-4-yl-carbonyl]-N-(pyrazine-2-yl)nicotinamide] are 16%, 53%, 64%, 66% and 83%.
